Measured values: patent US20220354929A1, “PEPTIDES AND USES THEREOF” (LATERAL IP PTY LTD, priority 2019, published 2022)
Values joined by “and” are separate entries in the source; they are usually repeats but may differ in a detail not shown here. Equal entries are not always repeated. “Also recorded” adds a separate entry of the source.

What was measured:
[1] = test system: dorsal root afferent-mediated synaptic inputs to dorsal horn neurones; assay: whole-cell recording in spinal cord slices from Chung models: dorsal root afferent-mediated synaptic inputs (evoked EPSPs/IPSPs); assay type: cell-based, rat; conditions: for effect on dorsal root-evoked EPSPs / excitatory synaptic transmission (in words) / effect on dorsal root-evoked IPSPs / inhibitory synaptic transmission (in words): peptide 5 μM, dorsal root stimulation 0.1 Hz
Experimental: (§1) An in vitro spinal cord slice with intact dorsal root afferents combined with single-cell whole-cell patch clamp electrophysiological recording techniques was used to assess the electrophysiological properties of the peptides having the amino acid sequence of SEQ ID NO:2, 3, 4 and 5.
(§2) Chung model rats, aged 8 to 12 weeks, were housed in an air-conditioned room on a 12 hour light/dark cycle with food and water available ad libitum. The rats were terminally anaesthetized using isofluorane and decapitated. The vertebral column, rib cage and surrounding tissues were rapidly removed and pinned under ice-cold (<4° C.), high sucrose-containing artificial cerebrospinal fluid (aCSF) comprising: 127 mM sucrose, 1.9 mM KCl, 1.2 mM KH2PO4, 0.24 mM CaCl2, 3.9 mM MgCl2, 26 mM NaHCO3, 10 mM D-glucose and 0.5 mM ascorbic acid. A laminectomy was performed and the spinal cord and associated roots gently dissected and teased out of the spinal column and surrounding tissues. Dura and pia mater and ventral roots were subsequently removed with fine forceps and the spinal cord hemisected. Care was taken to ensure dorsal root inputs to the spinal cord were maintained. The hemisected spinal cord-dorsal root preparations were secured to a tissue slicer and spinal cord slices (400 to 450 μm thick) with dorsal roots attached were cut in chilled (<4° C.) high sucrose aCSF using a Leica VT1000s microtome.
(§3) Slices were transferred to a small beaker containing ice cold aCSF with 127 mM NaCl, 1.9 mM KCl, 1.2 mM KH2PO4, 1.3 mM MgCl2, 2.4 mM CaCl2, 26 mM NaHCO3 and 10 mM D-glucose, and rapidly warmed to 35° C. ±1° C. in a temperature-controlled water bath over a 20 minute period, then subsequently removed and maintained at room temperature (22° C. ±2° C.) prior to electrophysiological recording. Electrophysiological recording was performed in aCSF comprising 127 mM NaCl, 1.9 mM KCl, 1.2 mM KH2PO4, 1.3 mM MgCl2, 2.4 mM CaCl2, 26 mM NaHCO3 and 10 mM D-glucose.
Whole-cell recordings were performed at 34-35° C. from Lamina I or II neurones in the dorsal horn of the spinal cord slices using Axopatch 1D and/or Multiclamp 700B amplifies and using the “blind” version of the patch-clamp technique.
Patch pipettes were pulled from thin-walled borosilicate glass with resistances of between 3 and 8 MS2 when filled with intracellular solution (140 mM potassium gluconate, 10 mM KCl, 1 mM EGTA-Na, 10 mM HEPES, 4 mM Na2ATP, 0.3 mM Na-GTP). The peptides of SEQ ID NOs:2, 3, 4 or 5 (LAT7771, LAT7772, LAT7773 or LAT7774) were diluted in the tissue bath at a concentration of 5 μM.
A concentric bipolar stimulating electrode was placed appropriately either on the dorsal root or dorsal root entry zone to evoke postsynaptic potentials/currents in recorded cells (see FIG. 1). […] EPSPs/EPSCs were confirmed as monosynaptic on the basis of being characterised by a constant latency and rise-time with few failures.
Recordings were monitored on an oscilloscope and stored on digital audio tapes for later off-line analysis. In addition, data were low-pass filtered at 2-5 kHz, (1 kHz for voltage-clamp data), digitized at 2-10 kHz and stored on a PC running pCLAMP 10 data acquisition software (Axon Instruments). Analysis of electrophysiological data was carried out using Clampfit 10 software.

[2] = test system: Chung model of neuropathic pain; assay: paw withdrawal threshold (von Frey) in Chung model of neuropathic pain, oral or intramuscular administration; assay type: in vivo, rat; conditions: for paw withdrawal threshold (PWT) / reversal of mechanical allodynia: 2 hours after administration, ipsilateral side
Description: Chung model of neuropathic pain was used to compare the in vivo efficacy of LAT8881 and LAT7771 administered orally or intramuscularly.
The spinal nerve ligation model (Chung model) was first reported by Kim and Chung (1992; Pain, 50(3):355-63) and involves a single tight ligation of the L5 spinal nerve. […] This model has been used as a “gold standard' model for assessing the efficacy of novel compounds targeting neuropathic pain.
Adult male Sprague-Dawley rats, 8-9 weeks old, weighing 220-250 g at the time of surgery, were anaesthetised with 3% isoflurane mixed with oxygen followed by an intramuscular injection of a mixture of ketamine and xylazine. The back was shaved and sterilised with povidone-iodine soaked cotton balls. The L5 spinal nerve was carefully isolated and tightly located with 6/0 silk suture and the wound was closed in layers. The single-dose antibiotics (Amoxipen, 100 mg/kg, i.p.) was routinely given for prevention of infection after surgery.
The animals were placed in individual Perspex boxes on a raised metal mesh for at least 40 minutes. Starting with the filament of lowest force (1 g), each filament was applied perpendicularly to the centre of the ventral surface of the paw until slightly bent for 6 seconds. If the animal withdrew or lifted its paw upon stimulation, a von Frey hair with force immediately lower than that tested was subsequently used. If no response was observed, then a hair with force immediately higher was tested. The lowest amount of force required to induce reliable responses (positive in 2 out of 3 trials) was recorded as the value of […] (PWT).
PWT was assessed once daily for three days before surgery and once a week for monitoring the development of mechanical allodynia.
All drug tests were carried out on the 13th to 17th day after surgery. All drug dosing was ‘blindly’ carried out by a second experimenter. The test compounds were administered and PWT was assessed before and 2 hours following drug or vehicle (5% DMSO) administration.

dorsal horn neurones = assay: whole-cell patch clamp recording in spinal cord slices from Chung models of neuropathic pain: membrane properties of dorsal horn neurones; assay type: cell-based, rat; conditions: for Membrane Potential, mean in presence of peptide: ipsilateral to injury; for Normalised Input Resistance, mean in presence of peptide / Normalised Input Resistance, ΔIR: control = 100; for reversal potential of peptide-induced response (intersection of VI relations): individual neurones; for Normalised Membrane Potential, mean in presence of peptide / Normalised Membrane Potential, ΔVm: rest = 100
Description: as §1
The spinal nerve ligation model (Chung model) was first reported by Kim and Chung (1992; Pain, 50(3):355-63) and involves a single tight ligation of the L5 spinal nerve. […] This model has been used as a “gold standard” model for assessing the efficacy of novel compounds targeting neuropathic pain.
Adult male Sprague-Dawley rats, 8-9 weeks old, weighing 220-250 g at the time of surgery, were purchased from Charles River UK Ltd. The animals were housed in groups of 4 in an air-conditioned room on a 12-hour light/dark cycle. Food and water were available ad libitum. They were allowed to acclimatise to the experimental environment for three days by leaving them on a raised metal mesh for at least 40 min. The baseline paw withdrawal threshold (PWT) was examined using a series of graduated von Frey hairs for 3 consecutive days before surgery and re-assessed on the 6th to 8th day after surgery and on the 12th to 14th day after surgery before drug dosing. Each rat was anaesthetized with 5% isoflurane mixed with oxygen (2L per min) followed by an intramuscular (i.m.) injection of ketamine 90 mg/kg plus xylazine 10 mg/kg. The back was shaved and sterilized with povidone-iodine. The animal was placed in a prone position and a para-medial incision was made on the skin covering the L4-6 level. The L5 spinal nerve was carefully isolated and tightly ligated with 6/0 silk suture. The wound was then closed in layers after a complete hemostasis. A single dose of antibiotics (Amoxipen, 15 mg/rat, i.p.) was routinely given for prevention of infection after surgery. The animals were placed in a temperature-controlled recovery chamber until fully awake before being returned to their home cages.
as §2, §3
Whole-cell recordings were performed at 34-35° C. from Lamina I or II neurones in the dorsal horn of the spinal cord slices using Axopatch 1D and/or Multiclamp 700B amplifies and using the “blind” version of the patch-clamp technique. […]

[3] = solubility in distilled water
[4] = LAT8881, concentration not given, one neurone

Sequence	effect on dorsal root-evoked EPSPs / excitatory synaptic transmission (in words) [1]	effect on dorsal root-evoked IPSPs / inhibitory synaptic transmission (in words) [1]	paw withdrawal threshold (PWT) / reversal of mechanical allodynia ([2]; 10 mg/kg intramuscularly (IM))	paw withdrawal threshold (PWT) / reversal of mechanical allodynia ([2]; 10 mg/kg orally (PO))	effect on inward rectification (in words) (dorsal horn neurones; peptide 5 μM)	effect on neuronal input resistance (in words) (dorsal horn neurones; peptide 5 μM)	Input Resistance, mean in presence of peptide (dorsal horn neurones; peptide 5 μM, all cells)	Membrane Potential, mean in presence of peptide (dorsal horn neurones; peptide 5 μM, all cells)	Normalised Input Resistance, mean in presence of peptide (dorsal horn neurones; peptide 5 μM)	Normalised Input Resistance, ΔIR (dorsal horn neurones; peptide 5 μM)	reversal potential of peptide-induced response (intersection of VI relations) (dorsal horn neurones; peptide 5 μM)	Normalised Membrane Potential, mean in presence of peptide (dorsal horn neurones; peptide 5 μM)	Normalised Membrane Potential, ΔVm (dorsal horn neurones; peptide 5 μM)	also measured
CRIIHNNNC [LAT7771, C-terminal fragment of human prolactin spanning residues 219-227 of human prolactin precursor]	In four neurones, dorsal root evoked EPSPs at a frequency of 0.1 Hz were reduced; also recorded: consistently reduced dorsal root-evoked EPSPs; also recorded: EPSPs were suppressed	In two of these neurones, suppression of EPSPs uncovered or activated IPSPs; also recorded: in two neurones promoted inhibitory synaptic transmission; also recorded: enhanced inhibitory synaptic transmission	significantly increased the PWT	significantly increased the PWT	enhancement or increase in the strength of inward rectification; also recorded: enhanced inward rectification	little change in neuronal input resistance; also recorded: marginal increase in neuronal input resistance	447.6 MΩ	−53.8±2.8 mV and −53.8 mV	94.8	5.2	−55 mV (2×) and −45 mV and −40 mV	94.8	5.2	effect on dorsal root-evoked IPSPs (in words) ([1]; prolactin 500 nM, 0.1 Hz and 5 Hz): lack of effect; analgesic properties in vivo ([2]; compared with LAT8881): comparable to that of LAT8881; effect on membrane potential / postsynaptic membrane properties (in words) (dorsal horn neurones; peptide 5 μM): little effect on a further 3 dorsal horn neurones; also recorded: principally induced membrane depolarisation; also recorded: membrane depolarisation and an increase in spontaneous firing; also recorded: minimal membrane depolarisation; also recorded: little or no effect on postsynaptic properties; change in neuronal input resistance (dorsal horn neurones; peptide 5 μM vs control): 15.8 ± 36.1 MΩ; ΔIR, change in neuronal input resistance (dorsal horn neurones; peptide 5 μM vs control, table prints control minus drug, text the magnitude): −15.8 MΩ; neuronal input resistance in the presence of peptide (dorsal horn neurones; peptide 5 μM, all cells): 447.6±119.4 MS2
CRIVYDSNC [LAT7773, C-terminal fragment of canine prolactin, residues 221-229 of canis lupus familiaris prolactin precursor]	In three neurones electrical stimulation of dorsal roots (0.1 Hz) evoked EPSPs that were suppressed; also recorded: In two other neurones EPSPs, and in one of these IPSPs, were enhanced; also recorded: remaining two neurones showed no change; also recorded: in some neurones depressed whilst in others they were clearly potentiated; also recorded: reducing dorsal root afferent-mediated synaptic inputs; also recorded: little effect on dorsal root afferent-mediated excitatory synaptic transmission; also recorded: increase in dorsal root afferent-mediated synaptic transmission	in one of these IPSPs, were enhanced; also recorded: both EPSPs and IPSPs were enhanced	–	–	enhancing inward rectification; also recorded: enhanced inward rectification	variable effects on input resistance inducing a decrease in 4 neurones and an increase in 5 neurones; also recorded: small increase in neuronal input resistance	373.5±103.6 MΩ and 373.5 MΩ	−50.3±3.0 mV and −50.3 mV	99.9	0.1	no clear reversal potential in 7 neurones; also recorded: around −93 mV; also recorded: around −92 mV	88.4	11.6	solubility in distilled water [3]: soluble; membrane hyperpolarisation in individual neurones (dorsal horn neurones; peptide 5 μM, responding neurones): 7.6 mV
YLRIVQCRSVEGSCGF [LAT8881, human growth hormone derived analgesic compound of PCT/AU2019/050020, reference compound]	–	–	reversed mechanical allodynia; also recorded: significantly increased the PWT	reversed mechanical allodynia; also recorded: significantly increased the PWT	–	–	–	–	–	–	–	–	–	effect on dorsal root-evoked EPSPs (in words) [1, 4]: suppressing EPSPs; effect on inhibitory synaptic transmission / IPSPs (in words) [1, 4]: partly mimicked by LAT8881; also recorded: enhanced inhibitory synaptic transmission; effect on postsynaptic properties (in words) (dorsal horn neurones; LAT8881, concentration not given, one neurone, after wash of LAT7771): little or no effect on postsynaptic properties
